Source: ChEMBL document CHEMBL1201862, “PubChem BioAssay data set” (2004)
Activity calls are given as the source filed them.

What was measured:
[1] = target: Heat shock protein HSP 90-alpha (Homo sapiens, UniProt P07900); assay type: functional, organism-based
[2] = target: T1, Fatty acid synthase (Homo sapiens, UniProt P49327); assay: FAS thioesterase domain inhibitors, dose response, biochemical, kinetic fluorescence intensity (AID 624326); assay type: functional;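 note: rate of fluorescence rise from hydrolysis of a fluorogenic O-methyl fluorescein ester substrate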
T1 sequence (P49327 whole entry, the tested form may be a part): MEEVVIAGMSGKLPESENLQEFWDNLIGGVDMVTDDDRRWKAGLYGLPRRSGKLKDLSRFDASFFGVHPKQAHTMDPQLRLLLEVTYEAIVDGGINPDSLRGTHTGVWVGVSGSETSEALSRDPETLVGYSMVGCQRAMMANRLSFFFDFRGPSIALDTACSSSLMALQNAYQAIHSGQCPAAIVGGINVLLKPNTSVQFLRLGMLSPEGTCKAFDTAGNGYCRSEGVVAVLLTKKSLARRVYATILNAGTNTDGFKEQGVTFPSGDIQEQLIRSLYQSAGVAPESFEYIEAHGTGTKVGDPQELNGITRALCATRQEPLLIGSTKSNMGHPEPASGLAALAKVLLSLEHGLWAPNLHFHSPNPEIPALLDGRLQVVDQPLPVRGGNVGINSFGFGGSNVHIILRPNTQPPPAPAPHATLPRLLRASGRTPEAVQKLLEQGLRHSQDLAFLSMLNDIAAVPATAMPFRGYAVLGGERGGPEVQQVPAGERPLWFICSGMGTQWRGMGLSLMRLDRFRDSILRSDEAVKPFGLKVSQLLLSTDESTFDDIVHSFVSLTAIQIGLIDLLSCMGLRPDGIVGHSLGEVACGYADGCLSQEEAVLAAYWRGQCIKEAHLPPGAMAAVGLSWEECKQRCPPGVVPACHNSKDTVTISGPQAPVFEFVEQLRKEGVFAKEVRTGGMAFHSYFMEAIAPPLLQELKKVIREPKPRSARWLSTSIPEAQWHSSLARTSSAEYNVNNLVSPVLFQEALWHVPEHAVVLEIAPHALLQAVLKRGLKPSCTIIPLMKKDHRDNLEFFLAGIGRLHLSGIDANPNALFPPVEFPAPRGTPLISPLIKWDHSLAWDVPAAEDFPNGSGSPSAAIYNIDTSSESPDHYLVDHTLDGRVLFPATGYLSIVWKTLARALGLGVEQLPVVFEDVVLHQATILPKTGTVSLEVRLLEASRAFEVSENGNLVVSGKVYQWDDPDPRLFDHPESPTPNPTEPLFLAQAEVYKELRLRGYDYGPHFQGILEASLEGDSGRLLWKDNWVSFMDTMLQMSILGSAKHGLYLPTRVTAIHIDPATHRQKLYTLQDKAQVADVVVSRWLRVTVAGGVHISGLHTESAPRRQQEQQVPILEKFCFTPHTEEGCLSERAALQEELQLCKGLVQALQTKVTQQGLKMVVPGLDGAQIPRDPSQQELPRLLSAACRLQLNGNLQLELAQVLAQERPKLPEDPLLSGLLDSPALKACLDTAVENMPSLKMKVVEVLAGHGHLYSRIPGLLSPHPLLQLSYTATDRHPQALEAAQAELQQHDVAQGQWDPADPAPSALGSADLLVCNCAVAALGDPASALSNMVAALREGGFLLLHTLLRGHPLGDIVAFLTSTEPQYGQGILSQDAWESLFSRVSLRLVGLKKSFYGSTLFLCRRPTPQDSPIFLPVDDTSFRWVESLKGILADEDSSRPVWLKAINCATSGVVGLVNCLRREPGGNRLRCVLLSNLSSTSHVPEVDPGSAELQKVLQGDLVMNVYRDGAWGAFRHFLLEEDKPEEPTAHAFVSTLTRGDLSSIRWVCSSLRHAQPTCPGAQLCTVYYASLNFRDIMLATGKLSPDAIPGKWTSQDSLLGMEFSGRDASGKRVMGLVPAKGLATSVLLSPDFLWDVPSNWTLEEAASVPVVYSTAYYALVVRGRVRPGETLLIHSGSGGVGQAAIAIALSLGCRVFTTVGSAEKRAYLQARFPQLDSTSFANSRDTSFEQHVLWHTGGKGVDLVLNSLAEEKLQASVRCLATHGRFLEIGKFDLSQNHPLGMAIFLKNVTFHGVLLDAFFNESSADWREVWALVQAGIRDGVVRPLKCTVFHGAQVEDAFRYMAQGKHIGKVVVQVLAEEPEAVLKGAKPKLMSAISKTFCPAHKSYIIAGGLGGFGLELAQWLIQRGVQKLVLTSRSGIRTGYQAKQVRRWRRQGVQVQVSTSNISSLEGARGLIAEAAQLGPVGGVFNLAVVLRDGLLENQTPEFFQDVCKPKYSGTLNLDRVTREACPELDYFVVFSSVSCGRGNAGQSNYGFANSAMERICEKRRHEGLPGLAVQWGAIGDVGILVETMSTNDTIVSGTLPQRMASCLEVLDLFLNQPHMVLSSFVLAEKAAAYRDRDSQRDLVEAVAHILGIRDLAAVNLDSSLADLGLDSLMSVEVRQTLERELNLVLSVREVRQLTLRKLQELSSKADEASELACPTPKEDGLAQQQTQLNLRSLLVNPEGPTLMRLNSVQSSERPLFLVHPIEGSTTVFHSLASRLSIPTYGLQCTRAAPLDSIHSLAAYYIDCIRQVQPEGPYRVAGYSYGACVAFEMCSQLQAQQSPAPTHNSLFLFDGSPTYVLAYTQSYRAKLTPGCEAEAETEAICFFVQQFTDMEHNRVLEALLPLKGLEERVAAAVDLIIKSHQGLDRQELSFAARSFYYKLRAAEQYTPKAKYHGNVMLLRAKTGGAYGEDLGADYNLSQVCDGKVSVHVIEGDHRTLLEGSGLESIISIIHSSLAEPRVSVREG

[3] = target: T1, Fatty acid synthase; assay: FAS thioesterase domain inhibitors, dose response, biochemical, endpoint fluorescence intensity, uHTS hits (AID 624327); assay type: functional;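 note: fluorescence from hydrolysis of an O-methyl fluorescein acyl ester substrate by the enzyme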
[4] = target: T2, Long-chain-fatty-acid--AMP ligase FadD28 (Mycobacterium tuberculosis, UniProt P9WQ59); assay: Fluorescence polarization aasay to screen for inhibitors that compete for the binding of FadD28 to a bisubstrate Measured in Biochemical System Using Plate Reader - 2147-01_Inhibitor_Dose_CherryPick_Activity.; assay type: functional, Mycobacterium tuberculosis H37Rv
T2 sequence (P9WQ59 whole entry): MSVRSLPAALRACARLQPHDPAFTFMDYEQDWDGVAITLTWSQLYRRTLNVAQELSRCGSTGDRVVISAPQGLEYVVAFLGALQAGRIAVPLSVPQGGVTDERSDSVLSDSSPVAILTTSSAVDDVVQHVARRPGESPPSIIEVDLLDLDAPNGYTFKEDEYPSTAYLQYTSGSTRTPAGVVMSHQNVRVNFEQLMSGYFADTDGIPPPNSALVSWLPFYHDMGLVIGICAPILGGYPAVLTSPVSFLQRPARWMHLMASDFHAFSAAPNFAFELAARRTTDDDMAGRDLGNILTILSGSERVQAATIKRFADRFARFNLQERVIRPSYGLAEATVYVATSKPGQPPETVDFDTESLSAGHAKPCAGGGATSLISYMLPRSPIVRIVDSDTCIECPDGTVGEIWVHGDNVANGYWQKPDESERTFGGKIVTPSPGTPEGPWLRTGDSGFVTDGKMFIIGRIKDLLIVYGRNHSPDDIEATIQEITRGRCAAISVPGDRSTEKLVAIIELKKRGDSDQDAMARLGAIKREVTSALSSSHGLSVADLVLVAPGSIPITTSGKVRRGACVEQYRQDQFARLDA

[5] = target: Genome polyprotein (dengue virus type 2, UniProt P29990); assay: Dengue-2 NS5 methyltransferase inhibitors, primary screen, biochemical, confirmation dose response (AID 588689); assay type: functional
Chain of Genome polyprotein (P29990 2492-3391 limits assumed): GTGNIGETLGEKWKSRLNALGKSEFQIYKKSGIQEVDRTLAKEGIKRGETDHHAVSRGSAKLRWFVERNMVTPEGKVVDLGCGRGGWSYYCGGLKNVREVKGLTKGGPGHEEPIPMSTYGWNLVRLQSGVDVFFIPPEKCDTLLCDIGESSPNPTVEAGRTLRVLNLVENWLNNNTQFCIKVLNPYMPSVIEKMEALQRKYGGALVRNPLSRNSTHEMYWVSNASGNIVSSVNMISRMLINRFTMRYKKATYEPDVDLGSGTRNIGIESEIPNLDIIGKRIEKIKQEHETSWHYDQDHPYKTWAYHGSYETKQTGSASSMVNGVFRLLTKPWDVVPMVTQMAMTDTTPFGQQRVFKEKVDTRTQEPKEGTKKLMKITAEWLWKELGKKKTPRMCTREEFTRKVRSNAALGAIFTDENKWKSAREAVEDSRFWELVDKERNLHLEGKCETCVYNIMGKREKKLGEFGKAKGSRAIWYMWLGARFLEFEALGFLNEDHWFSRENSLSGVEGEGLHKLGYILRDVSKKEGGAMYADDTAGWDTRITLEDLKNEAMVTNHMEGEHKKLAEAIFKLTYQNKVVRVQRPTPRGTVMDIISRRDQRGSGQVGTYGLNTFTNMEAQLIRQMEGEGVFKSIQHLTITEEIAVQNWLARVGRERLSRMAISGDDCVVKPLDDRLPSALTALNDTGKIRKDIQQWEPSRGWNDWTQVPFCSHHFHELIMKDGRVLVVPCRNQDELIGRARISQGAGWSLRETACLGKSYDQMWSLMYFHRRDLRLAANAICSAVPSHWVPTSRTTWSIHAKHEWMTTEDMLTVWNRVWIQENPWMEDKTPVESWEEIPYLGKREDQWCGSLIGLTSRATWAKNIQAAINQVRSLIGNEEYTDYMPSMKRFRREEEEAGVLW

[6] = target: T3, RNA-binding protein pos-1 (Caenorhabditis elegans, UniProt G5EF15); assay: inhibitors of POS-1/mex-3 RNA binding, dose response, biochemical, fluorescence polarization (AID 1964);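 note: purified POS-1 fused to maltose binding protein made in E. coli; potency of compounds blocking POS-1 binding to fluorescent RNA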
T3 sequence (G5EF15 whole entry): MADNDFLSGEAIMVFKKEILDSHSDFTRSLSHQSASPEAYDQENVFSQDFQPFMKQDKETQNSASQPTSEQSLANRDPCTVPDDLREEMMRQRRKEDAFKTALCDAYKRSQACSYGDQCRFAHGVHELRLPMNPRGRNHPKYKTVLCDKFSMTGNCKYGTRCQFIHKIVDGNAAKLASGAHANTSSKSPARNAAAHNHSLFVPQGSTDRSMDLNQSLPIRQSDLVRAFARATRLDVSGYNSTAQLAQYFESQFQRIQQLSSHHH

[7] = target: T4, Zinc finger protein mex-5 (Caenorhabditis elegans, UniProt Q9XUB2); assay: MEX-5/TCR-2 RNA interaction inhibitors, dose response, biochemical, C. elegans, fluorescence polarization (AID 1960)
T4 sequence (Q9XUB2 whole entry): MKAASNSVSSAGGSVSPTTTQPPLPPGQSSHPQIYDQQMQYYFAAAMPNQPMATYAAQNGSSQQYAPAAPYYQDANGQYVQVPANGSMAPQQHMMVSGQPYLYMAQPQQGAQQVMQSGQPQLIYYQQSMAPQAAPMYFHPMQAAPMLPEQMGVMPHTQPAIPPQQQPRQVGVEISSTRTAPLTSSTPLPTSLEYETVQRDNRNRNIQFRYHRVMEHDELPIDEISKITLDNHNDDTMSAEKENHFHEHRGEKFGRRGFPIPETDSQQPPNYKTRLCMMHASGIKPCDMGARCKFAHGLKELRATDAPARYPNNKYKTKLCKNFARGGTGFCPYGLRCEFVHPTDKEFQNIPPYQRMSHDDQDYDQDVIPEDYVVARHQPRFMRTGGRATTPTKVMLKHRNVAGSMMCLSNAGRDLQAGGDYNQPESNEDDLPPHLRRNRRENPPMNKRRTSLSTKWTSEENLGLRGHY

[8] = target: T5, Adenosylmethionine-8-amino-7-oxononanoate aminotransferase (Mycobacterium tuberculosis, UniProt P9WQ81); assay: Mycobacterium tuberculosis BioA enzyme inhibitor Measured in Biochemical System Using Plate Reader - 2163-02_Inhibitor_Dose_CherryPick_Activity.; assay type: functional, Mycobacterium tuberculosis UT205
T5 sequence (P9WQ81 whole entry): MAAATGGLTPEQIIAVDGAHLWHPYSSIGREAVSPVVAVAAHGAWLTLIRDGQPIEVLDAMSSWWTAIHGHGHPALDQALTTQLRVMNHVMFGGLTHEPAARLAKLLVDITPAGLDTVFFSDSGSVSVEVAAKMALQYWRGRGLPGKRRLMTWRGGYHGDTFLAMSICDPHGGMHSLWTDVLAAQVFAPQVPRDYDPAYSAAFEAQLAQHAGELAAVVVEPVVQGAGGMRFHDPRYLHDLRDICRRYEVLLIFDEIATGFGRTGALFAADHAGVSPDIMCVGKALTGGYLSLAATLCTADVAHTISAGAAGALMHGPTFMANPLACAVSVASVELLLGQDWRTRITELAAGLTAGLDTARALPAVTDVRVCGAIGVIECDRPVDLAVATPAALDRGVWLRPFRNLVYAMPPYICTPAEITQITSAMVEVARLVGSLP

[9] = test system: HeLa; assay: HeLa cell cytotoxicity, dose response, cytotoxicity control for MITF activator project, CellTiter-Glo luminescence, cherry-pick samples (AID 540259); assay type: functional, cell-based; settings: Homo sapiens
[10] = target: T6, High affinity choline transporter 1 (Homo sapiens, UniProt Q9GZV3); assay: CHT inhibitors, dose response, cell-based, 5-point CRC, membrane potential dye (AID 504840); assay type: functional
T6 sequence (Q9GZV3 whole entry): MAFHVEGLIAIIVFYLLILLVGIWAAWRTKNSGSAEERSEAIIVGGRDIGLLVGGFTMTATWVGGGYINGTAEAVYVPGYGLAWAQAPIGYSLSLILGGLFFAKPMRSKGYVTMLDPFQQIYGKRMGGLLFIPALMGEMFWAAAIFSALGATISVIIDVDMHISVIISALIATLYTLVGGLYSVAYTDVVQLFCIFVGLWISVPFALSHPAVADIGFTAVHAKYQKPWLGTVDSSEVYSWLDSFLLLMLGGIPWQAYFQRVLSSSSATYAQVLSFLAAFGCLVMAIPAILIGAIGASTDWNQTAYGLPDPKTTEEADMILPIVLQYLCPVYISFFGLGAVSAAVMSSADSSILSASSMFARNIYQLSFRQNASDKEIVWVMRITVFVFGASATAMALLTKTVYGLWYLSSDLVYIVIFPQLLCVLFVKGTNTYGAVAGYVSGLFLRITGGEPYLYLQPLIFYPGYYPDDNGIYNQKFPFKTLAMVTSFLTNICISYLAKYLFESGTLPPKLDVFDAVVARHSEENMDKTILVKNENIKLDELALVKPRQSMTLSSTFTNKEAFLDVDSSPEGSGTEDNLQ

[11] = miR-122 activators in hepatoma reporter cells, dose response, cell-based, Huh7 psiCHECK-miR122, Renilla luciferase, cherry-picked (AID 651956); assay type: functional;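 note: huh7 hepatoma cells stably carrying a psiCHECK-2 miR-122 sensor plasmid; renilla luciferase signal reporting endogenous miR-122 activity after 48 h compound exposure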
[12] = Luminescence Cell-Based Dose Confirmation HTS to Identify Activators of 5'UTR Stem-Loop Driven Alpha-Synuclein mRNA Translation in H4 Neuroglioblastoma Cells. [Related pubchem assays: 1829 (Project Summary), 1814 (Primary HTS)]; assay type: functional
[13] = Luminescence Cell-Based Dose Response HTS to Identify Activators of Luciferase Translation or Activity in H4 […] Cells. [Related pubchem assays: 1829 (Project Summary), 1814 (Primary HTS)]; assay type: functional
[14] = test system: H4; assay: Luminescence Cell-Based Dose Response HTS to Identify Activators of 5'UTR Stem-Loop Driven Prion Protein mRNA Translation in H4 Neuroglioblastoma Cells. [Related pubchem assays: 1829 (Project Summary), 1814 (Primary HTS)]; assay type: functional; settings: Homo sapiens
[15] = target: T7, DNA repair and recombination protein RAD54-like (Homo sapiens, UniProt Q92698); assay: inhibitors of human RAD54 branch migration, confirmation, biochemical, fluorescence, cherry-picked samples, dose series (AID 651657); assay type: functional
T7 sequence (Q92698 whole entry): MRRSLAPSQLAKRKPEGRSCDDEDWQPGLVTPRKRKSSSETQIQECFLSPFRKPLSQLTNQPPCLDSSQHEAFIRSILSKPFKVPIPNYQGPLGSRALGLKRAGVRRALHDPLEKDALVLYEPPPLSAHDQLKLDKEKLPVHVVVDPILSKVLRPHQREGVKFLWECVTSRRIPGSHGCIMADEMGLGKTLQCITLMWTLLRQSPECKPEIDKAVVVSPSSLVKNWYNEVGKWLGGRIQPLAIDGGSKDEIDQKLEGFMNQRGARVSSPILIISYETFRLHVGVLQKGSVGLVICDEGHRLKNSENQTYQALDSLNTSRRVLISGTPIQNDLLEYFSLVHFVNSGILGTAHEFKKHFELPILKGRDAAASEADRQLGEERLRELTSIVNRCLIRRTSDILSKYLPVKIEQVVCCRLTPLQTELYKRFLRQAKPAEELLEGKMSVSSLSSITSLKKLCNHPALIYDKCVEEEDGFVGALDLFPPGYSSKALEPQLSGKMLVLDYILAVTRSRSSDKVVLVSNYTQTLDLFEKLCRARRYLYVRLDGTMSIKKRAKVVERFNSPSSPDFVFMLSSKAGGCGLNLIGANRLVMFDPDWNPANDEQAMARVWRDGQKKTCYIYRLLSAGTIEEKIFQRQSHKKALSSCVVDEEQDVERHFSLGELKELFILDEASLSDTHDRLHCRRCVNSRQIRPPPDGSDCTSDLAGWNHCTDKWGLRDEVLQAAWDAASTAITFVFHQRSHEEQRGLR

[16] = test system: Streptococcus; assay: Group A Streptococcus viability loss, dose response, counter-screen for streptokinase expression inhibitor project, luminescence, BacTiterGlo (AID 1915); assay type: functional, organism-based;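 note: potency for reduction of bacterial viability or growth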
[17] = test system: Streptococcus sp. 'group A'; assay: growth inhibition of control SK(-) GAS strain, dose response, counter-screen for streptokinase expression inhibitor project, luminescence, kanamycin, BacTiterGlo, confirmation (AID 1900); assay type: functional, organism-based
[18] = intracellular Trypanosoma cruzi inhibitors in host cells – cell-based, plate reader, cherry-pick samples, set 3, dose response (AID 651818); assay type: functional;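 note: compounds incubated with infected cells for about four days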

CCOC(=O)c1ccc(NC(=O)CC2C(=O)OCCN2CC)cc1 (stereo unspecified)
AC50 [1]: 4.65 µM (active)

O=C(Nc1ccc(Cc2ccncc2)cc1)c1cc([N+](=O)[O-])ccc1N1CCOCC1
IC50 [2]: 1.24 µM (active)
IC50 [3]: 1.53 µM (active)

COc1ccc(C(=O)NCc2ccc(Cl)cc2)cc1S(=O)(=O)N1CCCC1
AC50 [4]: 4.67 µM (active)

CC1=NOC(=O)/C1=C\c1ccc2c(c1)OCO2
IC50 [5]: 7.17 µM (active)
EC50 [6]: > 300 µM (not active)
EC50 [7]: > 300 µM (not active)

CC(=O)c1ccc(N2CCN(S(=O)(=O)c3c(C(=O)N4CCCC4)c(C)n(C)c3C)CC2)cc1
AC50 [8]: 11.6 µM (active)

c1ccn(-c2ccc(-c3cc[nH]n3)cc2)c1
AC50 [9]: 90.9 µM (active)

O=[N+]([O-])c1ccc(S(=O)(=O)Nc2nc(-c3ccccc3)cs2)cc1
IC50 [5]: 59.6 µM (active)
IC50 [10]: 4.57 µM (active)

Cc1nnc(NC(=O)CSc2nc(C(C)C)nc3sc(C)c(C)c23)s1
AC50 [11]: 34.8 µM (active)

O=C(CNc1ccccc1OC(F)F)N1CCc2ccccc21
EC50 [12]: 0.103 µM (active)
AC50 [9]: 72.1 µM (active)
EC50 [13]: 6 µM (active)
EC50 [14]: 4.45 µM (active)

COc1ccc2nc(C)cc(Nc3ccc(C)cc3)c2c1
AC50 [15]: 19.4 µM (active)

CC(C)(C)N(Cc1ccccc1)C(=O)COC(=O)c1ccc([N+](=O)[O-])o1
IC50 [2]: 12.2 µM (active)
IC50 [3]: 16.2 µM (active)

O=C1c2ccccc2NC(c2cccc(Cl)c2)N1N=C1CCCCCC1 (stereo unspecified)
AC50 [9]: 200 µM (active)

Cc1cc(/C=C2\SC(=S)NC2=O)c(C)n1-c1ccc(O)cc1
AC50 [1]: 15.5 µM (active)
EC50 [16]: 2.36 µM (active)
EC50 [17]: 1.69 µM (active)

CCOc1cc2[nH]c(=S)n(Cc3ccc(C(=O)NCCCN(CC)CC)cc3)c(=O)c2cc1OCC
AC50 [15]: 40.1 µM (active)

O=C(c1ccncc1)N1CC[C@H]2[C@H](CO)Nc3ccc(Br)cc3[C@H]21
AC50 [8]: 18.5 µM (active)

COCC(=O)N(C)C[C@H]1Oc2cc(C#Cc3cccnc3)ccc2S(=O)(=O)N([C@H](C)CO)C[C@H]1C
AC50 [11]: 3.31 µM (active)

C[C@@H]1CN([C@H](C)CO)S(=O)(=O)c2ccc(C#CC3CC3)cc2O[C@@H]1CN(C)C(=O)c1cccc(F)c1
AC50 [11]: 22.3 µM (active)

CN1c2ccc(-c3ccccc3)cc2[C@H]2[C@H](CCN2C(=O)c2ccccc2F)[C@H]1CO
AC50 [8]: 0.183 µM (active)

C[C@H]1CN([C@@H](C)CO)C(=O)Cc2cc(NC(=O)Nc3ccc(C(F)(F)F)cc3)ccc2O[C@H]1CN(C)Cc1ccc(Cl)c(Cl)c1
AC50 [18]: 2.92 µM (active)

C[C@@H]1CN([C@H](C)CO)C(=O)c2cccc(NS(=O)(=O)c3ccc(Cl)cc3)c2O[C@@H]1CN(C)Cc1ccc(C(=O)Nc2ccccc2N)cc1
AC50 [18]: 9.17 µM (active)

C[C@@H]1CN([C@@H](C)CO)C(=O)c2cc(N(C)C)ccc2O[C@@H]1CN(C)Cc1ccc(C(=O)Nc2ccccc2N)cc1
AC50 [18]: 3.57 µM (active)

C[C@H](CO)N1C[C@H](C)[C@H](CN(C)S(=O)(=O)c2ccc(F)cc2)Oc2c(NC(=O)CCCCCC(=O)Nc3ccccc3N)cccc2C1=O
AC50 [18]: 2.58 µM (active)

COc1cc(/C=N/O)ccc1OCc1ccccc1Cl
AC50 [9]: 40.7 µM (active)

CCn1cc(C(=O)NCCC2=CCCCC2)c(=O)c2cc(S(=O)(=O)N(C)C)ccc21
IC50 [2]: 2.74 µM (active)
IC50 [3]: 4.69 µM (active)

CC[C@H](C)/C=C(C)/C=C/C1=CC2=C(Cl)C(=O)[C@](C)(OC(C)=O)C(=O)C2=CO1 [SCLEROTIORIN]
AC50 [1]: 0.8 µM (active)
